According to ChEMBL document CHEMBL4138146, “A Schmidt rearrangement-mediated synthesis of novel tetrahydro-benzo[1,4]diazepin-5-ones as potential anticancer and antiprotozoal agents” (Eur J Med Chem, 2017):

Key:
Type in all cases: functional
[1] = tested on: CCRF-CEM; assay: Growth inhibition of human CCRF-CEM cells assessed as cell growth at 10^-8 M incubated for 48 hrs by sulforhodamine B assay relative to control; settings: read-out: Activity
[2] = tested on: HL-60(TB); assay: Growth inhibition of human HL-60(TB) cells assessed as cell growth at 10^-8 M incubated for 48 hrs by sulforhodamine B assay relative to control; settings: HL-60, 48 h, read-out: Activity
[3] = tested on: SR; assay: Growth inhibition of human SR cells assessed as cell growth at 10^-8 M incubated for 48 hrs by sulforhodamine B assay relative to control; settings: read-out: Activity
[4] = tested on: NCI-H23; assay: Growth inhibition of human NCI-H23 cells assessed as cell growth at 10^-8 M incubated for 48 hrs by sulforhodamine B assay relative to control; settings: NCI-H23, 48 h, read-out: Activity
[5] = tested on: HCT-15; assay: Growth inhibition of human HCT15 cells assessed as cell growth at 10^-8 M incubated for 48 hrs by sulforhodamine B assay relative to control; settings: HCT-15, 48 h, read-out: Activity
[6] = tested on: SNB-19; assay: Growth inhibition of human SNB19 cells assessed as cell growth at 10^-8 M incubated for 48 hrs by sulforhodamine B assay relative to control; settings: SNB-19, 48 h, read-out: Activity
[7] = tested on: OVCAR-3; assay: Growth inhibition of human OVCAR3 cells assessed as cell growth at 10^-8 M incubated for 48 hrs by sulforhodamine B assay relative to control; settings: OVCAR-3, 48 h, read-out: Activity
[8] = tested on: OVCAR-5; assay: Growth inhibition of human OVCAR5 cells assessed as cell growth at 10^-8 M incubated for 48 hrs by sulforhodamine B assay relative to control; settings: OVCAR-5, 48 h, read-out: Activity
[9] = tested on: A498; assay: Growth inhibition of human A498 cells assessed as cell growth at 10^-8 M incubated for 48 hrs by sulforhodamine B assay relative to control; settings: A498, 48 h, read-out: Activity
[10] = tested on: MDA-MB-231; assay: Growth inhibition of human MDA-MB-231 cells assessed as cell growth at 10^-8 M incubated for 48 hrs by sulforhodamine B assay relative to control; settings: MDA-MB-231, 48 h, read-out: Activity
[11] = tested on: EKVX; assay: Growth inhibition of human EKVX cells assessed as cell growth at 10^-7 M incubated for 48 hrs by sulforhodamine B assay relative to control; settings: read-out: Activity
[12] = tested on: HT-29; assay: Growth inhibition of human HT-29 cells assessed as cell growth at 10^-7 M incubated for 48 hrs by sulforhodamine B assay relative to control; settings: HT-29, 48 h, read-out: Activity
[13] = tested on: SF-295; assay: Growth inhibition of human SF295 cells assessed as cell growth at 10^-7 M incubated for 48 hrs by sulforhodamine B assay relative to control; settings: SF-295, 48 h, read-out: Activity
[14] = tested on: Malme-3M; assay: Growth inhibition of human MALME-3M cells assessed as cell growth at 10^-7 M incubated for 48 hrs by sulforhodamine B assay relative to control; settings: read-out: Activity
[15] = tested on: SK-MEL-2; assay: Growth inhibition of human SK-MEL-2 cells assessed as cell growth at 10^-7 M incubated for 48 hrs by sulforhodamine B assay relative to control; settings: SK-MEL-2, 48 h, read-out: Activity
[16] = tested on: CAKI-1; assay: Growth inhibition of human Caki1 cells assessed as cell growth at 10^-7 M incubated for 48 hrs by sulforhodamine B assay relative to control; settings: CAKI-1, 48 h, read-out: Activity
[17] = tested on: TK-10; assay: Growth inhibition of human TK10 cells assessed as cell growth at 10^-7 M incubated for 48 hrs by sulforhodamine B assay relative to control; settings: TK-10, 48 h, read-out: Activity
[18] = tested on: MOLT-4; assay: Growth inhibition of human MOLT4 cells assessed as cell growth at 10^-6 M incubated for 48 hrs by sulforhodamine B assay relative to control; settings: MOLT-4, 48 h, read-out: Activity
[19] = tested on: HOP-92; assay: Growth inhibition of human HOP92 cells assessed as cell growth at 10^-6 M incubated for 48 hrs by sulforhodamine B assay relative to control; settings: HOP-92, 48 h, read-out: Activity
[20] = tested on: SNB-75; assay: Growth inhibition of human SNB75 cells assessed as cell growth at 10^-6 M incubated for 48 hrs by sulforhodamine B assay relative to control; settings: SNB-75, 48 h, read-out: Activity
[21] = tested on: OVCAR-8; assay: Growth inhibition of human OVCAR8 cells assessed as cell growth at 10^-6 M incubated for 48 hrs by sulforhodamine B assay relative to control; settings: OVCAR-8, 48 h, read-out: Activity
[22] = tested on: T47D; assay: Growth inhibition of human T47D cells assessed as cell growth at 10^-6 M incubated for 48 hrs by sulforhodamine B assay relative to control; settings: read-out: Activity
[23] = tested on: EKVX; assay: Growth inhibition of human EKVX cells assessed as cell growth at 10^-5 M incubated for 48 hrs by sulforhodamine B assay relative to control; settings: read-out: Activity
[24] = tested on: HCC 2998; assay: Growth inhibition of human HCC2998 cells assessed as cell growth at 10^-5 M incubated for 48 hrs by sulforhodamine B assay relative to control; settings: HCC 2998, 48 h, read-out: Activity
[25] = tested on: KM12; assay: Growth inhibition of human KM12 cells assessed as cell growth at 10^-5 M incubated for 48 hrs by sulforhodamine B assay relative to control; settings: KM12, 48 h, read-out: Activity
[26] = tested on: Malme-3M; assay: Growth inhibition of human MALME-3M cells assessed as cell growth at 10^-5 M incubated for 48 hrs by sulforhodamine B assay relative to control; settings: read-out: Activity
[27] = tested on: M14; assay: Growth inhibition of human M14 cells assessed as cell growth at 10^-5 M incubated for 48 hrs by sulforhodamine B assay relative to control; settings: M14, 48 h, read-out: Activity
[28] = tested on: SK-MEL-28; assay: Growth inhibition of human SK-MEL-28 cells assessed as cell growth at 10^-5 M incubated for 48 hrs by sulforhodamine B assay relative to control; settings: SK-MEL-28, 48 h, read-out: Activity
[29] = tested on: RXF 393; assay: Growth inhibition of human RXF393 cells assessed as cell growth at 10^-5 M incubated for 48 hrs by sulforhodamine B assay relative to control; settings: RXF 393, 48 h, read-out: Activity
[30] = tested on: SN12C; assay: Growth inhibition of human SN12C cells assessed as cell growth at 10^-5 M incubated for 48 hrs by sulforhodamine B assay relative to control; settings: read-out: Activity
[31] = tested on: NCI-H226; assay: Growth inhibition of human NCI-H226 cells assessed as cell growth at 10^-4 M incubated for 48 hrs by sulforhodamine B assay relative to control; settings: NCI-H226, 48 h, read-out: Activity
[32] = tested on: KM12; assay: Growth inhibition of human KM12 cells assessed as cell growth at 10^-4 M incubated for 48 hrs by sulforhodamine B assay relative to control; settings: KM12, 48 h, read-out: Activity
[33] = tested on: Malme-3M; assay: Growth inhibition of human MALME-3M cells assessed as cell growth at 10^-4 M incubated for 48 hrs by sulforhodamine B assay relative to control; settings: read-out: Activity
[34] = tested on: ACHN; assay: Growth inhibition of human ACHN cells assessed as cell growth at 10^-4 M incubated for 48 hrs by sulforhodamine B assay relative to control; settings: read-out: Activity

SMILES: CCCCOc1nc2ccccc2cc1C1CNC(=O)c2ccccc2N1 (centres undefined)
- growth at 0.01 µM [1]: 98%
- growth at 0.01 µM [2]: 98%
- growth at 0.01 µM [3]: 86%
- growth at 0.01 µM [4]: 95%
- growth at 0.01 µM [5]: 95%
- growth at 0.01 µM [6]: 96%
- growth at 0.01 µM [7]: 100%
- growth at 0.01 µM [8]: 98%
- growth at 0.01 µM [9]: 82%
- growth at 0.01 µM [10]: 98%
- growth at 0.1 µM [11]: 97%
- growth at 0.1 µM [12]: 98%
- growth at 0.1 µM [13]: 88%
- growth at 0.1 µM [14]: 92%
- growth at 0.1 µM [15]: 99%
- growth at 0.1 µM [16]: 86%
- growth at 0.1 µM [17]: 83%
- growth at 1 µM [18]: 92%
- growth at 1 µM [19]: 62%
- growth at 1 µM [20]: 63%
- growth at 1 µM [21]: 94%
- growth at 1 µM [22]: 86%
- growth at 10 µM [23]: 31%
- growth at 10 µM [24]: 15%
- growth at 10 µM [25]: 17%
- growth at 10 µM [26]: 41%
- growth at 10 µM [27]: 4%
- growth at 10 µM [28]: 44%
- growth at 10 µM [29]: 5%
- growth at 10 µM [30]: 19%
- growth at 100 µM [31]: -32%
- growth at 100 µM [32]: -2%
- growth at 100 µM [33]: -53%
- growth at 100 µM [34]: -71%
